According to PubChem BioAssay (NCI):
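Cultured in 96-well plates, cells were exposed to test compound for 48 hours across five concentrations. GI50 marks 50% less growth. TGI: concentration producing complete growth inhibition.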

Experiments:
Assay in all cases: NCI tumour cell line growth inhibition, 48 h
[1] = test system: MOLT-4 leukemia
[2] = test system: UACC-257 melanoma
[3] = test system: RXF 393 renal
[4] = test system: NCI/ADR-RES ovarian
[5] = test system: A498 renal
[6] = test system: MDA-MB-231 breast
[7] = test system: SK-MEL-28 melanoma
[8] = test system: SK-OV-3 ovarian
[9] = test system: HOP-92 NSCLC
[10] = test system: A549 NSCLC
[11] = test system: U251 CNS

Structure (SMILES) | TGI [1] | TGI [2] | TGI [3] | TGI [4] | TGI [5] | TGI [6] | TGI [7] | TGI [8] | TGI [9] | TGI [10] | TGI [11] | GI50 [1] | GI50 [2] | GI50 [5] | GI50 [6] | GI50 [7] | GI50 [8] | GI50 [10] | GI50 [11]
COc1cc(C2S/C(=C/c3ccccc3)C(=O)N2c2ccccc2Cl)cc(OC)c1OC (stereo not given) | > 100 µM | > 100 µM | 45.1 µM | 94.7 µM | > 100 µM | 67.3 µM | > 100 µM | > 100 µM | > 100 µM | > 100 µM | 55.9 µM | – | – | – | – | – | – | – | –
O=C(O)CN=c1c2ccccc2n(O)c2ccccc12 | > 100 µM | > 100 µM | – | – | > 100 µM | – | > 100 µM | > 100 µM | – | > 100 µM | > 100 µM | – | – | – | – | – | – | – | –
NC(=S)N/N=C/c1ccc(OC(=O)COc2ccccc2Cl)cn1 | > 88.7 µM | > 92.4 µM | > 100 µM | 59.3 µM | > 100 µM | – | > 100 µM | > 100 µM | > 90.3 µM | > 100 µM | > 100 µM | – | – | – | – | – | – | – | –
COc1cc(Cc2ccc3c(c2C#N)N(C)c2ccccc2S3)cc(OC)c1OC | > 100 µM | > 100 µM | > 100 µM | – | > 100 µM | – | > 100 µM | > 100 µM | > 100 µM | > 100 µM | > 100 µM | – | – | – | – | – | – | – | –
C/C(=N\NC(=S)Nc1ccc(Cl)cc1)c1nc2ncccc2[nH]1 | 22.2 µM | 7.75 µM | – | 53.4 µM | 20.2 µM | > 100 µM | 13.3 µM | 60.8 µM | 5.75 µM | > 100 µM | 14.5 µM | – | – | – | – | – | – | – | –
C/C([O-])=C(/c1nc(-c2ccc([N+](=O)[O-])o2)no1)[n+]1cc(C)ccc1C | > 100 µM | 24.2 µM | 43.2 µM | > 100 µM | 33.8 µM | – | 25.6 µM | > 79.3 µM | > 100 µM | 30.8 µM | 21.7 µM | – | – | – | – | – | – | – | –
BrC1=CN2C[n+]3cc(Br)c4ccccc4c3N=C2c2ccccc21 | 33.2 µM | 48.8 µM | – | > 100 µM | 70.9 µM | 34.6 µM | 6.7 µM | 51.8 µM | 29.6 µM | > 100 µM | 21.9 µM | – | – | – | – | – | – | – | –
Cc1nc(N(CCO)CCO)c2sc(=S)n(-c3ccccc3)c2n1 | > 100 µM | > 100 µM | – | – | > 100 µM | – | > 100 µM | > 100 µM | > 100 µM | > 100 µM | > 100 µM | – | – | – | – | – | – | – | –
Cc1ncc(CO)c(C=NCCCCCCN=Cc2c(CO)cnc(C)c2O)c1O | > 100 µM | > 100 µM | > 100 µM | > 100 µM | > 100 µM | > 100 µM | > 100 µM | > 100 µM | > 100 µM | > 100 µM | > 100 µM | – | – | – | – | – | – | – | –
COC(=O)C1=C(O)C(C(=O)OC)[C@@]2(O)[C@@H](C(=O)OC)CC[C@@H]1[C@@H]2C(=O)OC (stereo not given in full) | > 100 µM | > 100 µM | 61.2 µM | – | 55.4 µM | 83.5 µM | > 100 µM | 34.6 µM | – | – | 64.6 µM | – | – | – | – | – | – | – | –
COc1cc2nc(N3CCC[C@@H](NC4=CC(=O)c5ccccc5C4=O)C3)nc(N)c2cc1OC | 5.55 µM | 38 µM | – | – | 40.9 µM | 3.26 µM | 3.39 µM | 4.08 µM | – | 3.8 µM | 3.46 µM | 2.34 µM | 16.6 µM | 18.5 µM | 1.69 µM | 1.72 µM | 2.03 µM | 1.97 µM | 1.86 µM
